From patent publication US20220389008A1, “4-QUINOLINONE ANTIBACTERIAL COMPOUNDS” (Janssen Sciences Ireland Unlimited Company, priority 2019, published 2022)
Where two headings read alike, the source gives them in different places.

Key:
[1] = system: Mycobacterium tuberculosis strain H37Rv ΔctaE-ΔqcrCAB; assay: microbe, parasite or virus in culture; type: cell-based; conditions: 240 h
[2] = system: Mitochondrial toxicity (Glu/Gal); assay: Mitochondrial toxicity (Glu/Gal) assay; type: cell-based; set-up: key to Score: “negative” means that in the test, it was found to have low mitotoxicity (and hence no mitotoxicity alerts); “positive” means that there were some mitotoxicity alerts; “inconclusive” means that no accurate conclusion could be drawn; conditions: for Score: mitotoxicity score; for Δ IC50,glu/IC50,gal: ratio glu/gal
From the text: The compounds of the invention/examples may have advantages associated with in vitro potency, kill kinetics (i.e. bactericidal effect) in vitro, PK properties, food effect, safety/toxicity (including liver toxicity, coagulation, 5-LO oxygenase), metabolic stability, Ames II negativity, MNT negativity, aqueous based solubility (and ability to formulate) and/or cardiovascular effect e.g. on animals (e.g. anesthetized guinea pig). The data below that was generated/calculated may be obtained using standard methods/assays, for instance that are available in the literature or which may be performed by a supplier (e.g. Microsomal Stability Assay—Cyprotex, Mitochondrial toxicity (Glu/Gal) assay—Cyprotex, as well as literature CYP cocktail inhibition assays).

[3] = system: Mycobacterium tuberculosis (strain H37Ra), cyt bd; conditions: Mtb H37Ra; for (i) % OCR after cyt bd inhibitor: test compound 10 μM added after Compound X 0.9 μM; for (ii) % OCR after cccp: test compound 10 μM after Compound X 0.9 μM, then CCCP 1 μM
[4] = galactose medium, read-out: IC50, gal
[5] = glucose medium, read-out: IC50, glu

Compound: Cc1c(-c2nc3ccc(-c4ccccc4)cn3n2)[nH]c2ccccc2c1=O [Compound 72]
- IC50 [1]: 0.261 µM
- IC50 [2, 4]: 100 µM
- IC50 [2, 5]: 100 µM
- Score [2]: negative
- Δ IC50,glu/IC50,gal [2]: [x]0
- (i) % OCR after cyt bd inhibitor [3]: 99.84%
- (ii) % OCR after cccp [3]: 169.69%

Compound: COc1cc2[nH]c(-c3nc4ccc(Br)cn4n3)c(C)c(=O)c2cc1OC [Compound 73]
- IC50 [1]: > 100 µM
- IC50 [2, 4]: 100 µM
- IC50 [2, 5]: 100 µM
- Score [2]: negative
- Δ IC50,glu/IC50,gal [2]: [x]0
- (i) % OCR after cyt bd inhibitor [3]: 105.2%
- (ii) % OCR after cccp [3]: 171.2%

Compound: Cc1c(-c2nc3ccc(Cl)cn3n2)[nH]c2ccccc2c1=O [Compound 74]
- IC50 [1]: > 100 µM
- IC50 [2, 4]: 121 µM
- IC50 [2, 5]: 135 µM
- Score [2]: negative
- Δ IC50,glu/IC50,gal [2]: [x]l.ll
- (i) % OCR after cyt bd inhibitor [3]: 86.4%
- (ii) % OCR after cccp [3]: 173.3%

Compound: Cc1c(-c2nc3ccc(OCC(F)(F)F)cn3n2)[nH]c2ccccc2c1=O [Compound 77]
- IC50 [1]: 1.85 µM
- IC50 [2, 4]: 200 µM
- IC50 [2, 5]: 200 µM
- Score [2]: negative
- Δ IC50,glu/IC50,gal [2]: [x]0
- (i) % OCR after cyt bd inhibitor [3]: 110.77%
- (ii) % OCR after cccp [3]: 175.26%

Compound: COc1ccc2[nH]c(-c3nc4ccc(-c5ccc(OC(F)(F)F)cc5)cn4n3)c(C)c(=O)c2c1Cl [Compound 80]
- IC50 [1]: > 25 µM
- IC50 [2, 4]: 50 µM
- IC50 [2, 5]: 50 µM
- Score [2]: negative
- Δ IC50,glu/IC50,gal [2]: [x]0
- (i) % OCR after cyt bd inhibitor [3]: 122.15%
- (ii) % OCR after cccp [3]: 180.98%

Compound: Cc1c(-c2nc3ccc(-c4cnn(CC(F)(F)F)c4)cn3n2)[nH]c2ccccc2c1=O [Compound 81]
- IC50 [1]: 16.7 µM
- IC50 [2, 4]: 200 µM
- IC50 [2, 5]: 200 µM
- Score [2]: negative
- Δ IC50,glu/IC50,gal [2]: [x]0
- (i) % OCR after cyt bd inhibitor [3]: 98.58%
- (ii) % OCR after cccp [3]: 182.7%

Compound: Cc1nnc(-c2ccc3nc(-c4[nH]c5ccccc5c(=O)c4C)nn3c2)s1 [Compound 82]
- IC50 [1]: > 5 µM
- IC50 [2, 4]: 50 µM
- IC50 [2, 5]: 50 µM
- Score [2]: negative
- Δ IC50,glu/IC50,gal [2]: [x]0
- (i) % OCR after cyt bd inhibitor [3]: 96.77%
- (ii) % OCR after cccp [3]: 186.45%

Compound: Cc1cc(F)cc(-c2ccc3nc(-c4[nH]c5ccccc5c(=O)c4C)nn3c2)c1 [Compound 86]
- IC50 [1]: 1.32 µM
- IC50 [2, 4]: 50 µM
- IC50 [2, 5]: 50 µM
- Score [2]: negative
- Δ IC50,glu/IC50,gal [2]: [x]0
- (i) % OCR after cyt bd inhibitor [3]: 32,57%
- (ii) % OCR after cccp [3]: 39,44%

Compound: COc1cc(OC)cc(-c2ccc3nc(-c4[nH]c5ccccc5c(=O)c4C)nn3c2)c1 [Compound 87]
- IC50 [1]: 0.548 µM
- IC50 [2, 4]: 5.16 µM
- IC50 [2, 5]: 6.2 µM
- Score [2]: inconclusive
- Δ IC50,glu/IC50,gal [2]: [x]1.21
- (i) % OCR after cyt bd inhibitor [3]: 33,23%
- (ii) % OCR after cccp [3]: 38,98%

Compound: COc1ccc(-c2ccc3nc(-c4[nH]c5ccccc5c(=O)c4C)nn3c2)cc1 [Compound 90]
- IC50 [1]: 1.49 µM
- IC50 [2, 4]: 200 µM
- IC50 [2, 5]: 200 µM
- Score [2]: negative
- Δ IC50,glu/IC50,gal [2]: [x]0
- (i) % OCR after cyt bd inhibitor [3]: 25,77%
- (ii) % OCR after cccp [3]: 30,69%

Compound: Cc1cc(-c2ccc3nc(-c4[nH]c5ccccc5c(=O)c4C)nn3c2)ccc1F [Compound 110]
- IC50 [1]: 3.78 µM
- IC50 [2, 4]: 200 µM
- IC50 [2, 5]: 200 µM
- Score [2]: negative
- Δ IC50,glu/IC50,gal [2]: [x]0
- (i) % OCR after cyt bd inhibitor [3]: 40,37%
- (ii) % OCR after cccp [3]: 51,51%

Compound: Cc1ccc(-c2ccc3nc(-c4[nH]c5ccccc5c(=O)c4C)nn3c2)cc1F [Compound 124]
- IC50 [1]: 1.69 µM
- IC50 [2, 4]: 200 µM
- IC50 [2, 5]: 200 µM
- Score [2]: negative
- Δ IC50,glu/IC50,gal [2]: [x]0
- (i) % OCR after cyt bd inhibitor [3]: 31,72%
- (ii) % OCR after cccp [3]: 37,02%

Compound: COc1cc(F)cc(-c2ccc3nc(-c4[nH]c5ccccc5c(=O)c4C)nn3c2)c1 [Compound 125]
- IC50 [1]: 0.664 µM
- IC50 [2, 4]: 200 µM
- IC50 [2, 5]: 200 µM
- Score [2]: negative
- Δ IC50,glu/IC50,gal [2]: [x]0
- (i) % OCR after cyt bd inhibitor [3]: 45,66%
- (ii) % OCR after cccp [3]: 64,44%

Compound: Cc1c(-c2nc3ccc(-c4cc(F)cc(C(F)(F)F)c4)cn3n2)[nH]c2ccccc2c1=O [Compound 126]
- IC50 [1]: 10.8 µM
- IC50 [2, 4]: 15.5 µM
- IC50 [2, 5]: 25 µM
- Score [2]: inconclusive
- Δ IC50,glu/IC50,gal [2]: [x]1.61
- (i) % OCR after cyt bd inhibitor [3]: 43,71%
- (ii) % OCR after cccp [3]: 51,74%

Compound: Cc1c(-c2nc3ccc(-c4cccc(CC(F)(F)F)c4)cn3n2)[nH]c2ccccc2c1=O [Compound 127]
- IC50 [1]: 3.23 µM
- IC50 [2, 4]: 15.8 µM
- IC50 [2, 5]: 18.1 µM
- Score [2]: negative
- Δ IC50,glu/IC50,gal [2]: [x]1.14
- (i) % OCR after cyt bd inhibitor [3]: 49,62%
- (ii) % OCR after cccp [3]: 65,3%
